# Measured values reported in patent US20110039762A1, “TARGETED ANTIMICROBIAL MOIETIES” (C3 JIAN, INC., priority 2009, published 2011).
# Entries after “also recorded” stand apart in the source; their conditions may differ. Square brackets hold non-standard residues; d marks the D form. Ends that are not written are not given here. dOrn = NCCC[C@@H](N)C(=O)O
# System: microorganisms (e.g., bacteria, yeasts, fungi)
# Test: Targeting peptide binding to target microorganisms (Table 3)
# Conditions: data not shown
row,Substance,bacterial binding
1,DAANEA [BL-1],no bacterial binding

# Same assay, conditions: microorganism the targeting peptide binds; binding in aqueous buffers varied by peptide solubility, preferably 1x PBS
row,Substance,Target(s)
1,1T-287 (KGYPLPFQYRLNNH; Peptide with targeting and/or antimicrobial activity) [Peptide 1T-287],P. gingivalis; also recorded: T. denticola; also recorded: S. gordonii; also recorded: S. mitis; also recorded: S. mutans; also recorded: S. oralis; also recorded: S. salivarious; also recorded: S. sanguinis
2,1T-288 (RWVGGEPSADIYLSAKDTKT; Peptide with targeting and/or antimicrobial activity) [Peptide 1T-288],F. nucleatum; also recorded: S. gordonii; also recorded: S. salivarious; also recorded: S. sanguinis
3,1T-289 (EPSADIYLSAKDTKT; Peptide with targeting and/or antimicrobial activity) [Peptide 1T-289],F. nucleatum; also recorded: P. gingivalis; also recorded: S. gordonii; also recorded: S. mitis; also recorded: S. mutans; also recorded: S. oralis; also recorded: S. sanguinis
4,1T-291 (DMKIIKLYIKILSFLFIKYCNKKLNSVKLKA; Peptide with targeting and/or antimicrobial activity) [Peptide 1T-291],A. naeslundii; also recorded: F. nucleatum; also recorded: P. gingivalis; also recorded: T. denticola; also recorded: S. mitis; also recorded: S. mutans; also recorded: S. oralis
5,1T-294 (YDKIADGVFKIGKRGVL; Peptide with targeting and/or antimicrobial activity) [Peptide 1T-294],T. denticola
6,1T-295 (KYKLKKIIL; Peptide with targeting and/or antimicrobial activity) [Peptide 1T-295],S. mitis; also recorded: S. salivarious; also recorded: S. sanguinis
7,1T-297 (RSLRLNNALTKLPKLWYNRIKEAFYAYNDYDK; Peptide with targeting and/or antimicrobial activity) [Peptide 1T-297],A. naeslundii; also recorded: F. nucleatum; also recorded: T. denticola; also recorded: S. mitis; also recorded: S. mutans; also recorded: S. oralis
8,1T-301 (SKLPRVLDASLKL; Peptide with targeting and/or antimicrobial activity) [Peptide 1T-301],F. nucleatum; also recorded: S. gordonii; also recorded: S. sanguinis
9,1T-304 (STAGEASRRTASEASRRTAAKLRG; Peptide with targeting and/or antimicrobial activity) [Peptide 1T-304],P. gingivalis
10,CHA0 (D[dOrn]KTAA[dOrn]K; not fully specified (bridges)),P. fluorescens
11,PF-014 (HPTDNKHN; Peptide with targeting and/or antimicrobial activity),E. coli; also recorded: C. jeikeium
12,PF-016 (RKQYDDLSFNFLY; Peptide with targeting and/or antimicrobial activity),S. epidermidis; also recorded: E. faecalis; also recorded: C. jeikeium
13,PF-018 (YYKTYFKEV; Peptide with targeting and/or antimicrobial activity),E. coli; also recorded: C. jeikeium
14,PF-038 (MAYKDEGKETKFAVKGYKD; Peptide with targeting and/or antimicrobial activity),M. luteus
15,PF-039 (MLEEKNKSL; Peptide with targeting and/or antimicrobial activity),P. mirabilis; also recorded: C. jeikeium
16,PF-044 (KLKKYIHKPD; Peptide with targeting and/or antimicrobial activity),S. epidermidis and M. luteus and MRSA and C. jeikeium
17,PF-047 (NQEPSLQQDKEQKDNKG; Peptide with targeting and/or antimicrobial activity),S. mutans
18,PF-050 (SYYLKRREEKGK; Peptide with targeting and/or antimicrobial activity),S. epidermidis; also recorded: M. luteus; also recorded: E. coli; also recorded: C. jeikeium
19,PF-054 (VSISRFIGGGHVFNGNNKRNL; Peptide with targeting and/or antimicrobial activity),S. epidermidis; also recorded: E. coli
20,PF-055 (GHVFNGNNKRNL; Peptide with targeting and/or antimicrobial activity),S. mutans
21,PF-060 (HSSHL; Peptide with targeting and/or antimicrobial activity),E. coli; also recorded: C. albicans; also recorded: C. jeikeium
22,PF-062 (MKKKRINNDILGRMIYSSSIDKRNLYNLKYYE; Peptide with targeting and/or antimicrobial activity),S. epidermidis and M. luteus and E. coli and P. aeruginosa and MRSA and S. pneumoniae and E. faecalis and C. jeikeium

# Same assay, conditions: microorganism(s) the targeting peptide binds; binding in aqueous buffers depending on peptide solubility, preferably 1x PBS
row,Substance,Target(s)
1,AIEGVIKKGACFKLLRHEMF [PF-167],S. epidermidis and E. coli and C. albicans and MRSA and C. jeikeium and C. jejuni
2,HIKETR (Peptide with targeting and/or antimicrobial activity) [PF-222],S. epidermidis
3,MKKLVAALAVIVILTGCVYDPVNYDKIHDQEFQDHLRQNG [PF-252],S. mutans
4,MLTSRKKRLKKIVEEQNKKDESI [PF-336],S. mutans; also recorded: E. coli
5,PF-097 (QPTQGEQGTRPRRPTPMRGLLI; Peptide with targeting and/or antimicrobial activity),C. jeikeium
6,PF-101 (DPVPERQEQACACHRTAKPGK; Peptide with targeting and/or antimicrobial activity),S. mutans
7,PF-104 (ERTAVNDLWI; Peptide with targeting and/or antimicrobial activity),MRSA and C. jeikeium
8,PF-130 (LQRSDEESMPRRHEKYS; Peptide with targeting and/or antimicrobial activity),E. faecalis; also recorded: C. jeikeium; also recorded: C. jejuni
9,PF-131 (RRAAARTKGNRR; Peptide with targeting and/or antimicrobial activity),S. epidermidis and E. coli and MRSA and C. jeikeium
10,PF-132 (RPGDGAAEQGRSR; Peptide with targeting and/or antimicrobial activity),S. epidermidis; also recorded: C. jeikeium
11,PF-134 (GKAMKRQDCSAL; Peptide with targeting and/or antimicrobial activity),S. epidermidis; also recorded: C. jeikeium
12,PF-138 (AVHHSLLFR; Peptide with targeting and/or antimicrobial activity),S. epidermidis and M. luteus and P. mirabilis and E. coli and C. albicans and MRSA and C. jeikeium and C. jejuni
13,PF-141 (VVRRFQGM; Peptide with targeting and/or antimicrobial activity),S. epidermidis and M. luteus and C. albicans and MRSA and C. jeikeium
14,PF-142 (GIDRGCQAAR; Peptide with targeting and/or antimicrobial activity),S. mutans

# Same assay, conditions: peptide binding in aqueous buffers varied by peptide solubility; preferably 1x PBS
row,Substance,Target(s) (microorganisms bound by the targeting peptide)
1,PEIIKIVSGLL [PF-758],S. epidermidis and M. luteus and E. coli and MRSA and S. pneumoniae and E. faecalis and C. jeikeium
2,PF670 (TVIVAPMHSGV; Peptide with targeting and/or antimicrobial activity),Mycobacteria spp
